# Data published in article PMC6446940 (ChemMedChem, 2018).
# Where two headings read alike, the source gives them in different places.
# Key:
# [1] = test system: control pseudovirus VSV-G; assay: microbe, parasite or virus in culture; assay type: cell-based
# [2] = target: HIV-1 Reverse Transcriptase (RT) (Human immunodeficiency virus type 1 group M subtype B, UniProt P04585); assay: biochemical; assay type: biochemical
# [3] = test system: HIV-1 Env pseudovirus QB726.70M.ENV.C4; assay: Single-cycle assay TZM-bl, Env pseudovirus panel
# [4] = test system: HIV-1 Env pseudovirus QF495.23M.ENV.A3; assay: Single-cycle assay TZM-bl, Env pseudovirus panel
# [5] = test system: HIV-1 Env pseudovirus QA790.204I.ENV.A4; assay: Single-cycle assay TZM-bl, Env pseudovirus panel
# [6] = test system: HIV-1 Env pseudovirus QA790.204I.ENV.E2; assay: Single-cycle assay TZM-bl, Env pseudovirus panel
# [7] = test system: HIV-1 Env pseudovirus QG393.60M.ENV.B7; assay: Single-cycle assay TZM-bl, Env pseudovirus panel
# [8] = test system: HIV-1 Env pseudovirus CRF02_AG, clone 251; assay: Single-cycle assay TZM-bl, Env pseudovirus panel
# [9] = test system: HIV-1 Env pseudovirus CRF02_AG, clone 257; assay: Single-cycle assay TZM-bl, Env pseudovirus panel
# [10] = test system: HIV-1 Env pseudovirus CRF02_AG, clone 33; assay: Single-cycle assay TZM-bl, Env pseudovirus panel
# [11] = test system: HIV-1 Env pseudovirus PVO, clone 4; assay: Single-cycle assay TZM-bl, Env pseudovirus panel
# [12] = test system: HIV-1 Env pseudovirus TRO, clone 11; assay: Single-cycle assay TZM-bl, Env pseudovirus panel
# [13] = test system: HIV-1 Env pseudovirus RHPA4259, clone 7; assay: Single-cycle assay TZM-bl, Env pseudovirus panel
# [14] = test system: HIV-1 Env pseudovirus 1054.TC4.1499; assay: Single-cycle assay TZM-bl, Env pseudovirus panel
# [15] = test system: HIV-1 Env pseudovirus WEAUd15.410.5017; assay: Single-cycle assay TZM-bl, Env pseudovirus panel
# [16] = test system: HIV-1 Env pseudovirus Du422, clone 1; assay: Single-cycle assay TZM-bl, Env pseudovirus panel
# [17] = test system: HIV-1 Env pseudovirus ZM109F.PB4; assay: Single-cycle assay TZM-bl, Env pseudovirus panel
# [18] = test system: HIV-1 Env pseudovirus HIV-00836-2, clone 5; assay: Single-cycle assay TZM-bl, Env pseudovirus panel
# [19] = test system: HIV-1 Env pseudovirus QB099.391M.ENV.C8; assay: Single-cycle assay TZM-bl, Env pseudovirus panel
# [20] = test system: HIV-1 Env pseudovirus QA013.70I.ENV.H1; assay: Single-cycle assay TZM-bl, Env pseudovirus panel
# [21] = test system: HIV-1 Env pseudovirus QD435.100M.ENV.B5; assay: Single-cycle assay TZM-bl, Env pseudovirus panel
# [22] = test system: HIV-1 Env pseudovirus MG505.W0M.ENV.A2; assay: Single-cycle assay, Paired Infant and Maternal Env clones
# [23] = test system: HIV-1 Env pseudovirus MI206.W0M.ENV.D1; assay: as above
# [24] = test system: HIV-1 Env pseudovirus BJ613.W6M.ENV.E1; assay: as above
# [25] = test system: HIV-1 Env pseudovirus ML274.W0M.ENV.B1; assay: as above
# [26] = test system: HIV-1 Env pseudovirus BK184.W6M.ENV.D2; assay: as above
# [27] = test system: HIV-1 panel of Paired Infant (B) and Maternal (M) Env Molecular Clones; assay: Single-cycle assay, means over Paired Infant and Maternal Env clones
# Cytotoxicity [28] = assay type: cell-based, human; settings: human, freshly isolated and stimulated uninfected PBMC
# Cytotoxicity [29] = assay type: cell-based; settings: human, U87-CD4-CCR5 cells
# [30] = test system: HIV-1 Env pseudovirus KNH1144; assay: Single-cycle assay TZM-bl, Env pseudovirus panel
# [31] = test system: HIV-1 Env pseudovirus REJO4541, clone 67; assay: Single-cycle assay TZM-bl, Env pseudovirus panel
# [32] = test system: HIV-1 Env pseudovirus THRO4156, clone 18; assay: Single-cycle assay TZM-bl, Env pseudovirus panel
# [33] = test system: HIV-1 Env pseudovirus HIV-25925-2, clone 22; assay: Single-cycle assay TZM-bl, Env pseudovirus panel
# [34] = test system: HIV-1 Env pseudovirus QD435.100M.ENV.E1; assay: Single-cycle assay TZM-bl, Env pseudovirus panel
# [35] = test system: HIV-1 Env pseudovirus B1206.W6P.ENV.A1A; assay: Single-cycle assay, Paired Infant and Maternal Env clones
compound,measurement,setting,value
"Cc1nc([C@@H](CN)NC(=O)c2ccc(-c3ccc(F)c(F)c3)[nH]2)sc1CO (single isomer, unassigned) [NBD-14113, reference compound]",IC50,[1],26.3 ± 1.4 µM
same,IC50,"[2]; HIV-1 Reverse Transcriptase, mean ± SD, n=3",45.9 ± 3.6 µM
same,IC50,"[3]; subtype A, NIH # 11888, QB726.70M.ENV.C4, TZM-bl cells",4 ± 0.2 µM
same,IC50,"[4]; subtype A, NIH # 11891, QF495.23M.ENV.A3, TZM-bl cells",4 ± 0.2 µM
same,IC50,"[5]; subtype A1/D, NIH # 11901, QA790.204I.ENV.A4, TZM-bl cells",5.5 ± 0.3 µM
same,IC50,"[6]; subtype A1/D, NIH # 11904, QA790.204I.ENV.E2, TZM-bl cells",3 ± 0.1 µM
same,IC50,"[7]; subtype A2/D, NIH # 11906, QG393.60M.ENV.B7, TZM-bl cells",5.9 ± 0.1 µM
same,IC50,"[8]; subtype AG, NIH # 11595, CRF02_AG, clone 251, TZM-bl cells",3 ± 0.2 µM
same,IC50,"[9]; subtype AG, NIH # 11599, CRF02_AG, clone 257, TZM-bl cells",4.6 ± 0.5 µM
same,IC50,"[10]; subtype AG, NIH # 11607, CRF02_AG, clone 33, TZM-bl cells",3.5 ± 0.2 µM
same,IC50,"[11]; subtype B, NIH # 11022, PVO, clone 4, TZM-bl cells",4 ± 0.3 µM
same,IC50,"[12]; subtype B, NIH # 11023, TRO, clone 11, TZM-bl cells",5.1 ± 0.1 µM
same,IC50,"[13]; subtype B, NIH # 11036, RHPA4259, clone 7, TZM-bl cells",3.7 ± 0.4 µM
same,IC50,"[14]; subtype B, NIH # 11561, 1054.TC4.1499, TZM-bl cells",3.6 ± 0.2 µM
same,IC50,"[15]; subtype B, NIH # 11578, WEAUd15.410.5017, R5X4-tropic virus, TZM-bl cells",3.7 ± 0.3 µM
same,IC50,"[16]; subtype C, NIH # 11308, Du422, clone 1, TZM-bl cells",3 ± 0.1 µM
same,IC50,"[17]; subtype C, NIH # 11314, ZM109F.PB4, TZM-bl cells",1.9 ± 0.1 µM
same,IC50,"[18]; subtype C, NIH # 11500, HIV-00836-2, clone 5, TZM-bl cells",4.3 ± 0.4 µM
same,IC50,"[19]; subtype C, NIH # 11909, QB099.391M.ENV.C8, TZM-bl cells",4 ± 0.3 µM
same,IC50,"[20]; subtype D, NIH # 11911, QA013.70I.ENV.H1, TZM-bl cells",3.5 ± 0.1 µM
same,IC50,"[21]; subtype D, NIH # 11916, QD435.100M.ENV.B5, TZM-bl cells",2.2 ± 0.3 µM
same,IC50,"[22]; subtype A, NIH # 11528-M (maternal), MG505.W0M.ENV.A2",4.7 ± 0.8 µM
same,IC50,"[23]; subtype A, NIH # 11531-M (maternal), MI206.W0M.ENV.D1",3.4 ± 0.2 µM
same,IC50,"[24]; subtype A, NIH # 11521-B (infant), BJ613.W6M.ENV.E1",2.8 ± 0.4 µM
same,IC50,"[25]; subtype A, NIH # 11540-M (maternal), ML274.W0M.ENV.B1",4.5 ± 0.6 µM
same,IC50,"[26]; subtype C/D, NIH # 11522-B (infant), BK184.W6M.ENV.D2",3.6 ± 0.2 µM
same,IC50,"[27]; read-out: IC50 Mean ± SEM: Infant (B), mean over infant clones",4.3e-06 ± 5e-07 M
same,IC50,"[27]; read-out: IC50 Mean ± SEM: Mother, mean over maternal clones",4e-06 ± 4e-07 M
"Cc1nc(C(CN)NC(=O)c2ccc(-c3ccc4c(c3)OCO4)[nH]2)sc1CO (centres unmarked) [NBD-14110, N-(2-amino-1-(5-(hydroxymethyl)-4-methylthiazol-2-yl)ethyl)-5-(benzo[d][1,3]dioxol-5-yl)-1H-pyrrole-2-carboxamide]",IC50,"[1]; Pseudovirus, U87/CD4/CCR5",51.6 ± 4.4 µM
same,CC50 at 7 days,Cytotoxicity [28],62.8 ± 2.9 µM
same,CC50 at 3 days,Cytotoxicity [29],> 100 µM
same,IC50,[2],30.6 ± 2.7 µM
same,IC50,[3]; TZM-bl,3.7 ± 0.3 µM
same,IC50,[4]; TZM-bl,3 ± 0.1 µM
same,IC50,[30],5.9 ± 0.4 µM
same,IC50,[5]; TZM-bl,2.1 ± 0.6 µM
same,IC50,[6]; TZM-bl,1.5 ± 0.2 µM
same,IC50,[7]; TZM-bl,5.2 ± 0.3 µM
same,IC50,[8]; TZM-bl,2.5 ± 0.1 µM
same,IC50,[9]; TZM-bl,5.4 ± 0.2 µM
same,IC50,[10]; TZM-bl,5 ± 0.3 µM
same,IC50,[11]; TZM-bl,1.4 ± 0.3 µM
same,IC50,[12]; TZM-bl,2.4 ± 0.4 µM
same,IC50,[31],3.4 ± 0.3 µM
same,IC50,[13]; TZM-bl,2.8 ± 0.3 µM
same,IC50,[32],2.7 ± 0.2 µM
same,IC50,[14]; TZM-bl,4.2 ± 0.4 µM
same,IC50,[15]; TZM-bl,1.6 ± 0.1 µM
same,IC50,[16]; TZM-bl,1.8 ± 0.2 µM
same,IC50,[17]; TZM-bl,4.9 ± 0.1 µM
same,IC50,[18]; TZM-bl,1.7 ± 0.1 µM
same,IC50,[33],4.7 ± 0.1 µM
same,IC50,[19]; TZM-bl,4.3 ± 0.5 µM
same,IC50,[20]; TZM-bl,2.9 ± 0.3 µM
same,IC50,[21]; TZM-bl,2.4 ± 0.2 µM
same,IC50,[34],5.9 ± 0.4 µM
same,IC50,[22],6.1 ± 0.5 µM
same,IC50,[35],5.6 ± 0.2 µM
same,IC50,[23],4.7 ± 0.2 µM
same,IC50,[24],2.8 ± 0.1 µM
same,IC50,[25],7.1 ± 0.3 µM
same,IC50,[26],3.7 ± 0.6 µM
same,IC50,"[27]; Human immunodeficiency virus 1, read-out: IC50 Mean ± SEM: Infant (B)",4.8e-06 ± 8e-07 M
same,IC50,"[27]; Human immunodeficiency virus 1, read-out: IC50 Mean ± SEM: Mother (M)",5.2e-06 ± 6e-07 M
same,IC50,"[27]; Human immunodeficiency virus 1, read-out: IC50 Mean ± SEM: Overall (n=10)",5e-06 ± 5e-07 M
